In article PMC10011554, “BET inhibitor trotabresib in heavily pretreated patients with solid tumors and diffuse large B-cell lymphomas” (Nature Communications, 2023):
Several values for one entry are separate records, joined by “and”; a condition that tells them apart may be missing. Equal values may be shown once. Read-outs that look alike come from different tables or passages of the source.

Tests used:
three TNBC models = tested on: three TNBC models; parameters: method as in Investigator's Brochure; conditions: ref Investigator's Brochure, read-out: overall mean IC50, colony formation; cited from earlier work
[1] = parameters: method as in PMID 32240793; conditions: part A preliminary results; cited from earlier work
TMD8 (ABC DLBCL) = tested on: TMD8 (ABC DLBCL); parameters: method as in Report CC-90010-Pharm-1018; conditions: TMD8, Experiment 1, ref Report CC-90010-Pharm-1018; read-out: absolute IC50, proliferation; cited from earlier work
P-gp = tested on: P-gp; parameters: method as in Investigator's Brochure; conditions: ref Investigator's Brochure, read-out: IC50, transporter inhibition; cited from earlier work
[2] = parameters: method as in Unpublished data from Celgene Corporation; conditions: ref Unpublished data from Celgene Corporation, cited from earlier work
SU-DHL-2 (ABC DLBCL) = tested on: SU-DHL-2 (ABC DLBCL); parameters: method as in Report CC-90010-Pharm-1018; conditions: SU DHL 2, Experiment 2, ref Report CC-90010-Pharm-1018; read-out: absolute IC50, proliferation; cited from earlier work
[3] = parameters: method as in Unpublished data from Celgene Corporation; conditions: COH70 study, ref Unpublished data from Celgene Corporation; cited from earlier work
[4] = tested on: COH71 TNBC PDX-derived model; parameters: method as in Investigator's Brochure; conditions: COH71, ref Investigator's Brochure; read-out: IC50, colony formation; cited from earlier work
[5] = parameters: method as in PMID 32240793; conditions: cited from earlier work
[6] = tested on: human ether-à-go-go-related gene (hERG); parameters: method as in Investigator's Brochure; conditions: ref Investigator's Brochure; cited from earlier work
GBM15 GBM PDX = tested on: GBM15 GBM PDX; parameters: method as in Unpublished data from Celgene Corporation; conditions: Day 29, ref Unpublished data from Celgene Corporation, cited from earlier work
[7] = Biopharmaceutic and physicochemical profile
[8] = tested on: CYP1A2, CYP2A6, CYP2B6, CYP2E1 and CYP3A4/5; parameters: method as in Investigator's Brochure; conditions: CYP1A2, CYP2A6, CYP2B6, CYP2E1 and CYP3A4/5, ref Investigator's Brochure; cited from earlier work
CYP3A4/5, CYP2C8 = tested on: CYP3A4/5, CYP2C8; parameters: method as in Investigator's Brochure; conditions: ref Investigator's Brochure; cited from earlier work
[9] = tested on: MYC gene expression in Raji Burkitt's lymphoma cells; parameters: method as in Investigator's Brochure; conditions: ref Investigator's Brochure, read-out: mean IC50, inhibition of MYC gene expression; cited from earlier work
OCI-LY-10 (ABC DLBCL) = tested on: OCI-LY-10 (ABC DLBCL); parameters: method as in Report CC-90010-Pharm-1018; conditions: OCI-LY-10, Table 2, ref Report CC-90010-Pharm-1018; read-out: absolute IC50, proliferation; cited from earlier work
OATP1B1 = tested on: OATP1B1; parameters: method as in Investigator's Brochure; conditions: OATP1B1, ref Investigator's Brochure; read-out: IC50, transporter inhibition; cited from earlier work
OAT1 = tested on: OAT1; parameters: method as in Investigator's Brochure; conditions: OAT1, 30 µM, ref Investigator's Brochure; cited from earlier work
R/R DLBCL = assay: Tumor response (International Working Group criteria), PFS and OS in phase I study, part B; assay type: in vivo, human
Method: Secondary objectives were the preliminary efficacy of trotabresib in terms of clinical benefit rate (CR + PR + SD of ≥4 months’ duration), ORR (CR + PR), duration of response or SD, PFS, OS, and the PK of trotabresib. In addition, part C assessed the effects of food on the PK and the safety of trotabresib as a secondary objective. The pharmacodynamics of trotabresib were assessed as an exploratory objective.
Response was assessed using Response Evaluation Criteria in Solid Tumors (RECIST) v1.1[54] in patients with solid tumors, International Working Group criteria in patients with DLBCL[55], and Response Assessment in Neuro-Oncology (RANO) criteria[56] in patients with CNS tumors (astrocytoma and glioblastoma). For patients with BCC, the response was assessed using a combination of radiological assessment of target lesions per RECIST v1.1, digital clinical photography assessed per World Health Organization (WHO) criteria, and punch biopsies to confirm CR. PK parameters assessed included Cmax, tmax, AUC, t½, apparent clearance (CL/F), and apparent volume of distribution (Vz/F).
Bayesian logistic regression model based on dose-limiting toxicity was used to provide initial guidance for dose recommendations in the dose-escalation phase. The final decision was reached by considering the totality of safety, PK, and PD data. For binary efficacy endpoints, two-sided 95% Clopper–Pearson exact confidence intervals were provided. For time-to-event endpoints (PFS and OS), the median and 95% CI were estimated using the Kaplan–Meier method.

[10] = parameters: method as in Investigator's Brochure; conditions: ref Investigator's Brochure, cited from earlier work
[11] = parameters: method as in Investigator's Brochure; conditions: rats, IV, non-radiolabeled, ref Investigator's Brochure; cited from earlier work
[12] = part B R/R DLBCL (N = 23), treated population

In the case of `Cn1cc(-c2cc(S(C)(=O)=O)ccc2OCC2CC2)c2ccccc2c1=O` [trotabresib], the IC50 (three TNBC models) is listed as 110 ± 40 nM, the oral bioavailability [1] is listed as “high oral bioavailability” and the t1/2 [1] is listed as ~ 60 h. For the same compound, the IC50 (TMD8 (ABC DLBCL)) was 190 nM, the IC50 (P-gp) was 2000 nM and the weight loss ([2]; GBM15, 15 mg/kg/dose group) was -6.6%. The weight loss ([2]; GBM15, 25 mg/kg/dose group) was -3.7%, the weight loss ([2]; GBM15, 37.5 mg/kg/dose group) was -3.1% and the IC50 (SU-DHL-2 (ABC DLBCL)) was 100 nM. The “daily dose up to which well tolerated” value [3] was 25 mg/kg, the IC50 [4] was 180 ± 20 nM and the “alternative RP2D” value ([5]; 3 days on/11 days off) was 30 mg/day. The “recommended phase II dose (RP2D)” value ([5]; 4 days on/24 days off) was 45 mg/day, the IC50 [6] was 24300 nM and the “mean percent TGI” value (GBM15 GBM PDX; GBM15, 15 mg/kg/dose (5/2)) was 65%. For the same compound, the “mean percent TGI” value (GBM15 GBM PDX; GBM15, 25 mg/kg/dose (3/4)) was 65%, the “mean percent TGI” value (GBM15 GBM PDX; GBM15, 37.5 mg/kg/dose (2/5)) was 70% and the ionization [7] was “non-ionizable”. For the same compound, the “Biopharmaceutics Classification System (BCS) behavior” value ([7]; data on file) was “Category II like”, the direct inhibitory effect [8] was “little to no direct inhibitory effect” and the enzymes mediating metabolism (CYP3A4/5, CYP2C8) was “mediated primarily by CYP3A4/5 with minor involvement of CYP2C8”. For the same compound, the IC50 [9] was 60 nM, the IC50 (OCI-LY-10 (ABC DLBCL)) was 418 nM and the IC50 (OATP1B1) was 4940 nM. For the same compound, the “inhibition of mediated transport” value (OAT1) was 45.6%, the “reduction in target lesion size” value (R/R DLBCL; one patient with GCB immunophenotype R/R DLBCL, after two cycles) was 57% and the “Median OS (95% CI)” value (R/R DLBCL; part B DLBCL (n = 23)) was 159 days and 159 (101–NE) days. For the same compound, the “Median PFS (95% CI)” value (R/R DLBCL; part B DLBCL (n = 23)) was 54 (49–65) days, the OS range (R/R DLBCL; part B DLBCL (n = 23)) was 44 to 423 days and the PFS range (R/R DLBCL; part B DLBCL (n = 23)) was 12 to 423 days. For the same compound, the “best response CR” value (R/R DLBCL; part B R/R DLBCL (N = 23)) was 8.7%, the “best response PD” value (R/R DLBCL; part B R/R DLBCL (N = 23)) was 43.5% and the “best response PR” value (R/R DLBCL; part B R/R DLBCL (N = 23)) was 4.3%. The “best response SD” value (R/R DLBCL; part B R/R DLBCL (N = 23)) was 8.7%, the CBR (R/R DLBCL; [12]) was 17.4% and the ORR (R/R DLBCL; [12]) was 13.0%. The total treatment duration (R/R DLBCL; part B, one patient with transformed DLBCL, ongoing at cycle 17) was 1.6 years, the “accumulation after repeat dosing” value ([10]; rats, toxicokinetics) was “no accumulation in rats” and the “clearance in male vs female rats” value [10] was “approximately 2 fold”. The “dose excreted intact in bile or urine, average” value [11] was 0.9 % of the dose.
